Source: US20180243308A1, “PHARMACEUTICAL COMBINATION” (Boehringer Ingelheim International GmbH, priority 2008, published 2018)

Columns and labels:
[1] = tested on: HT-29 large tumors; assay: in vivo anti-tumor efficacy, HT-29 large tumors; conditions: Colorectal
[2] = tested on: GS-9L; assay: in vivo anti-tumor efficacy, GS-9L syngeneic rat tumor model; conditions: Glioblastoma, 50 mg/kg/d
[3] = tested on: SKOV3; assay: in vivo anti-tumor efficacy, SKOV3 xenograft model; conditions: Ovarian, SKOV3, 50 mg/kg/d
[4] = tested on: Calu-6; assay: in vivo anti-tumor efficacy, Calu-6 xenograft model; conditions: Lung (non-small-cell), Calu-6, 50 mg/kg/d
[5] = tested on: Rip-Tag; assay: in vivo anti-tumor efficacy, Rip-Tag murine transgenic pancreas model
[6] = tested on: NCI-H460; assay: in vivo anti-tumor efficacy, NCI-H460 xenograft model; conditions: Lung (non-small-cell), NCI-H460, 25 mg/kg/d
[7] = tested on: Caki-1; assay: in vivo anti-tumor efficacy, Caki-1 xenograft model; conditions: Renal, Caki-1, 100 mg/kg/d
[8] = tested on: PAC-120; assay: in vivo anti-tumor efficacy, PAC-120 xenograft model; conditions: Prostate (hormone-dependent), PAC-120, 100 mg/kg/d
[9] = tested on: FaDu; assay: in vivo anti-tumor efficacy, FaDu xenograft model; conditions: Head and neck, 100 mg/kg/d
[10] = tested on: HT-29; assay: in vivo anti-tumor efficacy, HT-29 xenograft model; conditions: Colorectal, HT-29, 100 mg/kg/d
[11] = tested on: recurrent advanced stage NSCLC
Protocol: Patients with advanced stage NSCLC, PS 0-1, previously treated with one first line platinum-based chemotherapy regimen were eligible for this trial. […] Tumor assessments were performed at screening and after every second treatment cycle according to RECIST (Response Evaluation Criteria in Solid Tumors).

[12] = tested on: Calu-6 xenografts (human NSCLC tumor cell line); assay: subcutaneous Calu-6 NSCLC xenografts, single agents and combination; format: in vivo; conditions: Calu-6 xenografts in nude mice, end of experiment (38 days of treatment), suboptimal doses
Protocol: In order to analyse the anti-tumor effects of combining the inhibition of tumor angiogenesis by interfering with the VEGFR signaling cascade with the established anti-proliferative treatment modality of NSCLC with compound B1, the following in vivo experiment was performed. Nude mice carrying established subcutaneous Calu-6 xenografts (human NSCLC tumor cell line) were randomized and treated with either compound B1 or compound A1 alone or with the combination of both drugs.

[13] = tested on: advanced non-small-cell lung cancer; assay: Phase II double-blind randomized study of two doses of compound A1; format: in vivo, human; conditions: for median Progression Free Survival (PFS) time: all patients
Protocol: This study was conducted as a Phase II double-blind, randomized study of two different doses of orally administered compound A1 in patients with advanced non-small-cell lung cancer who had failed at least one prior chemotherapy regimen. The primary efficacy endpoints evaluated were response rate and time to progression. Important secondary endpoints were survival and tolerability of compound A1.
Patients were randomly assigned to receive compound A1 at a dose of 250 mg twice daily or 150 mg twice daily. The dose of compound A1 could be reduced stepwise to no lower than 100 mg twice daily in case of undue toxicity that would prevent chronic treatment. Patients were treated until diagnosis of progression of the underlying lung cancer disease. Progressive disease, for the analysis of the primary endpoint, was defined as radiological evidence of tumour progression according to RECIST criteria.
This randomized study enrolled 73 patients in total, 36 patients at the dose of 250 mg twice daily and 37 patients at the dose of 150 mg twice daily.
The ECOG performance status score is a scale from 0 to 5 with criteria used by doctors and researchers to assess how a patient's disease is progressing, assess how the disease affects the daily living abilities of the patient, and determine appropriate treatment and prognosis (Oken, M. M., Creech, R. H., Tormey, D. C., Horton, J., Davis, T. E., McFadden, E. T., Carbone, P. P.: Toxicity And Response Criteria Of The Eastern Cooperative Oncology Group. Am J Clin Oncol 5:649-655, 1982). […] Overall Survival (OS) time is defined as the length of time a patient lives after they are diagnosed with or treated for a disease.

[14] = tested on: relapsed ovarian cancer; assay: Phase II maintenance trial of compound A1 versus placebo; format: in vivo, human
Protocol: The primary efficacy endpoint of this trial was the Progression Free Survival Rate (PFSR) at 9 months after start of treatment with compound A1. As secondary endpoints PFS rate at 3 months and 6 months, respectively, and time to next anti-tumour treatment were evaluated.
Patients were randomly assigned to receive compound A1 at a dose of 250 mg twice daily or matching placebo. […] Patients were treated until diagnosis of progression of the underlying ovarian cancer disease. Progressive disease, for the analysis of the primary endpoint, was defined as either radiological progression, or tumour marker (CA-125) progression.
In total, 84 patients were entered into the trial. 44 patients were randomised to receive compound A1 at a dose of 250 mg twice daily, and 40 patients to receive matching placebo.

[15] = 250 mg twice daily maintenance, preliminary data output

Compound: COC(=O)c1ccc2c(c1)NC(=O)/C2=C(\Nc1ccc(N(C)C(=O)CN2CCN(C)CC2)cc1)c1ccccc1 [compound A, 3-Z-[1-(4-(N-((4-methyl-piperazin-1-yl)-methylcarbonyl)-N-methyl-amino)-anilino)-1-phenyl-methylene]-6-methoxycarbonyl-2-indolinone]
- Efficacy [1]: tumor volume reduction
- T/C [2]: T/C 32% @ 50 mg/kg/d
- T/C [3]: T/C 19% @ 50 mg/kg/d
- T/C [4]: T/C 24% @ 50 mg/kg/d
- Efficacy (cell wraps: interference with tumor formation) [5]: interference with
- T/C [6]: T/C 54% @ 25 mg/kg/d
- T/C [7]: T/C 13% @ 100 mg/kg/d
- T/C [8]: T/C 34% @ 100 mg/kg/d
- T/C [9]: T/C 11% @ 100 mg/kg/d
- T/C [10]: T/C 16% @ 100 mg/kg/d

Compound: CCS(=O)(=O)O.COC(=O)c1ccc2c(c1)NC(=O)/C2=C(\Nc1ccc(N(C)C(=O)CN2CCN(C)CC2)cc1)c1ccccc1 [compound A1, 3-Z-[1-(4-(N-((4-methyl-piperazin-1-yl)-methylcarbonyl)-N-methyl-amino)-anilino)-1-phenyl-methylene]-6-methoxycarbonyl-2-indolinone-monoethanesulphonate]
- period the patient with the CR has been maintained on monotherapy ([11]; compound A1 monotherapy after combination stage): over 63 weeks
- Maximum Tolerated Dose (MTD) of compound A1 ([11]; in combination with standard dose of compound B1 (500 mg/m^2)): 200 mg bid
- T/C value [12]: 33%
- Overall Survival (OS) time ([13]; 150 mg twice daily): 144 days
- median Progression Free Survival (PFS) time ([13]; 150 mg twice daily): 48 days
- Overall Survival (OS) time ([13]; 250 mg twice daily): 208 days
- median Progression Free Survival (PFS) time ([13]; 250 mg twice daily): 53 days
- median overall survival (OS) ([13]; all patients (ECOG 0-2)): 153 days
- median PFS ([13]; baseline ECOG of 0 or 1, 150 mg twice daily): 81 days
- median PFS ([13]; baseline ECOG of 0 or 1, 250 mg twice daily): 85 days
- patients with stable disease ([13]; baseline ECOG of 2): one of the 17 patients
- reduction (partial response) in tumor size ([13]; one patient, 250 mg twice daily, sustained through 9 months): 74%
- median OS ([13]; patients with ECOG score of 0-1): 264 days
- patients achieving clinical benefit ([13]; subgroup with ECOG 0 or 1): ~60%
- PFS rate at 6 months (24 weeks) [14, 15]: 28.3%
- PFS rate at 9 months (36 weeks) [14, 15]: 16.5%
- median time to progression ([14]; based on radiological data, disregarding tumour marker progression): 143 days
- PFS rate at 3 months (12 weeks) ([14]; versus placebo arm): not different between arms
- time between tumour marker progression and radiological progression ([14]; versus placebo arm): longer

Compound: Nc1nc2[nH]cc(CCc3ccc(C(=O)N[C@@H](CCC(=O)[O-])C(=O)[O-])cc3)c2c(=O)[nH]1.[Na+].[Na+] [compound B1, N-[4-[2-(2-amino-4,7-dihydro-4-oxo-1H-pyrrolo[2,3-d]pyrimidin-5-yl)ethyl]benzoyl]-L-Glutamic acid, disodium salt, heptahydrate, reference compound]
- T/C value [12]: 46%
